Read-outs that look alike come from different tables or passages of the source.
How the values were obtained:
Assay in all cases: MIC, broth microdilution (CLSI), substance alone or ATB combined with compound at 4 or 8 μg/mL
ECL P99 = type: cell-based, E. cloacae; conditions: for MIC: Enterobacter cloacae
Method in brief: (§1)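 CLSI M7-A7 broth microdilution. ca-MHB, 5·10^5 CFU/mL log-phase cells, 16-20 h, 35° C, ambient air. Fosfomycin wells + 25 μg/ml glucose-6-phosphate. Visual MIC read.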

PAE 105250 = type: cell-based, P. aeruginosa; conditions: PAE 105250
Method in brief: as §1

PAE UFR48 = type: cell-based, P. aeruginosa; conditions: PAE UFR48
Method in brief: as §1

PAE UFR90 = type: cell-based, P. aeruginosa; conditions: PAE UFR90
Method in brief: as §1

SAU 29213 = type: cell-based, S. aureus; conditions: SAU 29213
Method in brief: as §1

SPN 49619 = type: cell-based, S. pneumoniae; conditions: SPN 49619
Method in brief: as §1

[1] = Pseudomonas aeruginosa, antibiotic alone, read-out: MIC ATB alone

C=CC1=C(C(=O)O)N2C(=O)[C@@H](NC(=O)/C(=N\OCC(=O)O)c3csc(N)n3)[C@H]2SC1 [FIX, Cefixime, reference compound]
MIC ATB combined with Example 9 @4 μg/ml (ECL P99; ECL P99, with Example 9 at 4 μg/ml): <0.031 µg/mL
MIC ATB combined with Example 11 @8 μg/ml (ECL P99; ECL P99, with Example 11 at 8 μg/ml): <0.031 µg/mL
MIC ATB combined with Example 12 @8 μg/ml (ECL P99; ECL P99, with Example 12 at 8 μg/ml): <0.031 µg/mL
MIC ATB combined with Example 13 @8 μg/ml (ECL P99; ECL P99, with Example 13 at 8 μg/ml): 8 µg/mL
MIC ATB combined with Example 14 @8 μg/ml (ECL P99; ECL P99, with Example 14 at 8 μg/ml): <0.031 µg/mL
MIC ATB combined with Example 15 @4 μgml (ECL P99; ECL P99, with Example 15 at 4 μg/ml): <0.031 µg/mL
MIC ATB combined with Example 16 @4 μg/ml (ECL P99; ECL P99, with Example 16 at 4 μg/ml): <0.031 µg/mL
MIC (ECL P99): > 128 µg/mL
MIC (ECL P99; ECL P99, antibiotic alone, read-out: MIC ATB alone): > 512 µg/mL
MIC ATB combined with Example 1 @8 μg/ml (PAE 105250; with Example 1 @8 μg/ml): <0.031 µg/mL
MIC ATB combined with Example 1 @8 μg/ml (PAE 105250; with Example 1 at 8 μg/ml): <0.031 µg/mL
MIC ATB combined with Example 7 @8 μgml (PAE 105250; with Example 7 at 8 μg/ml): >32 µg/mL
MIC ATB combined with Example 9 @4 μg/ml (PAE 105250; with Example 9 @4 μg/ml): >32 µg/mL
MIC ATB combined with Example 9 @4 μg/ml (PAE 105250; with Example 9 at 4 μg/ml): >32 µg/mL
MIC ATB combined with Example 11 @8 μg/ml (PAE 105250; with Example 11 at 8 μg/ml): >32 µg/mL
MIC ATB combined with Example 12 @8 μg/ml (PAE 105250; with Example 12 at 8 μg/ml): >32 µg/mL
MIC ATB combined with Example 13 @8 μg/ml (PAE 105250; with Example 13 at 8 μg/ml): >32 µg/mL
MIC ATB combined with Example 14 @8 μg/ml (PAE 105250; with Example 14 at 8 μg/ml): >32 µg/mL
MIC ATB combined with Example 15 @4 μgml (PAE 105250; with Example 15 at 4 μg/ml): >32 µg/mL
MIC ATB combined with Example 16 @4 μg/ml (PAE 105250; with Example 16 at 4 μg/ml): >32 µg/mL
MIC (PAE 105250; [1]): > 512 µg/mL
MIC ATB combined with Example 1 @8 μg/ml (PAE UFR48; with Example 1 @8 μg/ml): <0.031 µg/mL
MIC ATB combined with Example 1 @8 μg/ml (PAE UFR48; with Example 1 at 8 μg/ml): <0.031 µg/mL
MIC ATB combined with Example 7 @8 μgml (PAE UFR48; with Example 7 at 8 μg/ml): >32 µg/mL
MIC ATB combined with Example 9 @4 μg/ml (PAE UFR48; with Example 9 @4 μg/ml): >32 µg/mL
MIC ATB combined with Example 9 @4 μg/ml (PAE UFR48; with Example 9 at 4 μg/ml): >32 µg/mL
MIC ATB combined with Example 11 @8 μg/ml (PAE UFR48; with Example 11 at 8 μg/ml): >32 µg/mL
MIC ATB combined with Example 12 @8 μg/ml (PAE UFR48; with Example 12 at 8 μg/ml): >32 µg/mL
MIC ATB combined with Example 13 @8 μg/ml (PAE UFR48; with Example 13 at 8 μg/ml): >32 µg/mL
MIC ATB combined with Example 14 @8 μg/ml (PAE UFR48; with Example 14 at 8 μg/ml): >32 µg/mL
MIC ATB combined with Example 15 @4 μgml (PAE UFR48; with Example 15 at 4 μg/ml): >32 µg/mL
MIC ATB combined with Example 16 @4 μg/ml (PAE UFR48; with Example 16 at 4 μg/ml): >32 µg/mL
MIC (PAE UFR48; [1]): > 512 µg/mL
MIC ATB combined with Example 1 @8 μg/ml (PAE UFR90; with Example 1 @8 μg/ml): <0.031 µg/mL
MIC ATB combined with Example 1 @8 μg/ml (PAE UFR90; with Example 1 at 8 μg/ml): <0.031 µg/mL
MIC ATB combined with Example 7 @8 μgml (PAE UFR90; with Example 7 at 8 μg/ml): >32 µg/mL
MIC ATB combined with Example 9 @4 μg/ml (PAE UFR90; with Example 9 @4 μg/ml): >32 µg/mL
MIC ATB combined with Example 9 @4 μg/ml (PAE UFR90; with Example 9 at 4 μg/ml): >32 µg/mL
MIC ATB combined with Example 11 @8 μg/ml (PAE UFR90; with Example 11 at 8 μg/ml): >32 µg/mL
MIC ATB combined with Example 12 @8 μg/ml (PAE UFR90; with Example 12 at 8 μg/ml): >32 µg/mL
MIC ATB combined with Example 13 @8 μg/ml (PAE UFR90; with Example 13 at 8 μg/ml): >32 µg/mL
MIC ATB combined with Example 14 @8 μg/ml (PAE UFR90; with Example 14 at 8 μg/ml): >32 µg/mL
MIC ATB combined with Example 15 @4 μgml (PAE UFR90; with Example 15 at 4 μg/ml): >32 µg/mL
MIC ATB combined with Example 16 @4 μg/ml (PAE UFR90; with Example 16 at 4 μg/ml): >32 µg/mL
MIC (PAE UFR90; [1]): > 32 µg/mL
MIC ATB combined with Example 1 @8 μg/ml (SAU 29213; with Example 1 @8 μg/ml): 16 µg/mL
MIC ATB combined with Example 1 @8 μg/ml (SAU 29213; with Example 1 at 8 μg/ml): 16 µg/mL
MIC ATB combined with Example 7 @8 μgml (SAU 29213; with Example 7 at 8 μg/ml): 8 µg/mL
MIC ATB combined with Example 9 @4 μg/ml (SAU 29213; with Example 9 @4 μg/ml): <=0.031 μg/mL
MIC ATB combined with Example 9 @4 μg/ml (SAU 29213; with Example 9 at 4 μg/ml): <=0.031 μg/mL
MIC ATB combined with Example 11 @8 μg/ml (SAU 29213; with Example 11 at 8 μg/ml): 0.125 µg/mL
MIC ATB combined with Example 12 @8 μg/ml (SAU 29213; with Example 12 at 8 μg/ml): <0.031 µg/mL
MIC ATB combined with Example 13 @8 μg/ml (SAU 29213; with Example 13 at 8 μg/ml): 4 µg/mL
MIC ATB combined with Example 14 @8 μg/ml (SAU 29213; with Example 14 at 8 μg/ml): <0.031 µg/mL
MIC ATB combined with Example 15 @4 μgml (SAU 29213; with Example 15 at 4 μg/ml): <0.031 µg/mL
MIC ATB combined with Example 16 @4 μg/ml (SAU 29213; with Example 16 at 4 μg/ml): <0.031 µg/mL
MIC (SAU 29213; Staphylococcus aureus, antibiotic alone, read-out: MIC ATB alone): 16 µg/mL
MIC ATB combined with Example 1 @8 μg/ml (SPN 49619; with Example 1 @8 μg/ml): 1 µg/mL
MIC ATB combined with Example 1 @8 μg/ml (SPN 49619; with Example 1 at 8 μg/ml): 1 µg/mL
MIC ATB combined with Example 7 @8 μgml (SPN 49619; with Example 7 at 8 μg/ml): 1 µg/mL
MIC ATB combined with Example 9 @4 μg/ml (SPN 49619; with Example 9 @4 μg/ml): 0.25 µg/mL
MIC ATB combined with Example 9 @4 μg/ml (SPN 49619; with Example 9 at 4 μg/ml): 0.25 µg/mL
MIC ATB combined with Example 11 @8 μg/ml (SPN 49619; with Example 11 at 8 μg/ml): 0.25 µg/mL
MIC ATB combined with Example 12 @8 μg/ml (SPN 49619; with Example 12 at 8 μg/ml): <0.031 µg/mL
MIC ATB combined with Example 13 @8 μg/ml (SPN 49619; with Example 13 at 8 μg/ml): 0.5 µg/mL
MIC ATB combined with Example 14 @8 μg/ml (SPN 49619; with Example 14 at 8 μg/ml): <0.031 µg/mL
MIC ATB combined with Example 15 @4 μgml (SPN 49619; with Example 15 at 4 μg/ml): 0.25 µg/mL
MIC ATB combined with Example 16 @4 μg/ml (SPN 49619; with Example 16 at 4 μg/ml): <0.031 µg/mL
MIC (SPN 49619; Streptococcus pneumoniae, antibiotic alone, read-out: MIC ATB alone): 1 µg/mL

From patent US20200024278A1, “COMPOSITION COMPRISING ANTIBIOTIC COMPOUND AND AN HETEROCYCLIC COMPOUND AND THEIR USE IN PREVENTING OR TREATING BACTERIAL INFECTIONS” (MUTABILIS, priority 2016, published 2020)
